Molecules are shown by their SMILES. Read-outs that look alike come from different tables or passages of the source.

Results on three molecules are retold here after US4309425A (priority 1980, dated 1982).

Assay [1] relates to Eggs of the beet armyworm (Spodoptera exigua). Briefly: beet armyworm egg (ovicidal) test, % eggs failing to hatch. The format is in vivo. Particulars: 72 h, three days, read-out: % Control (% eggs failing to hatch); for mortality at 1 %: 1% in acetone. The method, then: Eggs of the beet armyworm (Spodoptera exigua), laid on cellophane discs each containing 50-75 eggs, were placed in petri dishes and lightly sprayed with 1% concentrations of the indicated compounds in acetone solution. Three days later, percent control (% eggs failing to hatch) was determined.
Eggs of the beet armyworm (Spodoptera exigua), laid on cellophane discs each containing 50-75 eggs, were placed in petri dishes and lightly sprayed with 200 ppm concentration of the indicated compounds in acetone solution. Three days later, percent control (% eggs failing to hatch) was determined.

The subject of a further assay is Rhizoctonia solani. Briefly: Rhizoctonia solani infested soil test, cotton. Format: in vivo. Conditions: 192 h, 1.5 kg/ha, 8 days. The source says: Rhizoctonia solani-infested soil was placed in a 900 cc cup. Compounds of this invention were mixed at a rate of 1.5 kg/ha in a section 2" wide×2" deep×4" long to simulate an in-the-row application. Five cotton seeds were planted in the treated soil. After 8 days, the cotton plants were removed and rated for disease control.

In assay [2] the test system is Venturia inaequalis. Briefly: apple scab residual wash-off test. Format: in vivo. Conditions: 1/2 inch simulated rainfall, 10-12 days. Here is the method: Compounds of this invention are dissolved in acetone in an amount equal to 6% of the final volume and then suspended at a concentration of 20 ppm in purified water containing 25 ppm of the surfactant Alkanol® XC (sodium alkyl naphthalene sulfonate). This suspension is sprayed to the point of run-off on apple seedlings. The following day, 1/2 inch of simulated rainfall is applied to the foliage of the plants. When the foliage is dry, the plants are inoculated with a spore suspension of the fungus Venturia inaequalis and incubated in a growth room for 10-12 days. Disease ratings are then made. […] Phytotoxicity in the form of foliar burn was observed on the plants in association with disease control.

Assay [3] has as its system Venturia inaequalis. Briefly: apple scab photostability test. Format: in vivo. Particulars: xenon arc 3500 foot candles 16 hours, 10-12 days. The method, then:
Compounds of this invention are dissolved in acetone in an amount equal to 6% of the final volume and then suspended at a concentration of 20 ppm in purified water containing 25 ppm of the surfactant Alkanol® XC (sodium alkyl naphthalene sulfonate). This suspension is sprayed to the point of run-off on apple seedlings. When the foliage is dry, the plants are exposed to 3500 foot candles of light from a xenon arc source for a period of 16 hours. This light source approximates the spectrum of natural sunlight, and is used to assess photostability of the compounds of this invention on plant foliage. The following day, the plants are inoculated with a spore suspension of the fungus Venturia inaequalis and incubated in a growth room for 10-12 days. Disease ratings are then made. […] Phytotoxicity in the form of foliar burn was observed on some of the plants in association with disease control.

The test system of assay [4] is Erysiphe cichoracearum. Briefly: cucumber powdery mildew preventive test. The format is in vivo. Conditions: Golovinomyces cichoracearum, 168 h, 7 days. The method, then:
Compounds of this invention are dissolved in acetone in an amount equal to 6% of the final volume and then suspended at a concentration of 20 ppm in purified water containing 25 ppm of the surfactant Alkanol® XC (sodium alkyl naphthalene sulfonate). This suspension is sprayed to the point of run-off on cucumber seedlings. The following day, the plants are inoculated with a spore suspension of the fungus Erysiphe cichoracearum and incubated in a growth room for 7 days. Disease ratings are then made. […] Phytotoxicity in the form of foliar burn or growth reduction was observed on some of the plants in association with disease control.

The next assay has as its system Erisyphe cichoracearum. Briefly: cucumber powdery mildew curative test. Conditions: Cucumis sativus, 144 h, sprayed day after inoculation, additional 6 days. Format: in vivo. An excerpt: Cucumber plants are inoculated with a spore suspension of the fungus Erisyphe cichoracearum and in a growth room overnight. The following day, the plants are sprayed to the point of run-off with a suspension prepared by dissolving compounds of this invention in acetone in an amount equal to 6% of the final volume and then suspended at a concentration of 20 ppm in purified water containing 25 ppm of the surfactant Alkanol® XC (sodium alkyl naphthalene sulfonate). Plants are returned to the growth room for an additional 6 days when disease ratings are then made. […] Phytotoxicity in the form of foliar burn or growth reduction was observed on some of the plants in association with disease control.

The subject of assay [5] is Erysiphe cichoracearum. Briefly: cucumber powdery mildew residual wash-off test. Format: in vivo. Conditions: Golovinomyces cichoracearum, 168 h, 1/2 inch simulated rainfall, 7 days. The method, then: Compounds of this invention are dissolved in acetone in an amount equal to 6% of the final volume and then suspended at a concentration of 20 ppm in purified water containing 25 ppm of the surfactant Alkanol® XC (sodium alkyl naphthalene sulfonate). This suspension is sprayed to the point of run-off on cucumber seedlings. The following day, 1/2 inch of simulated rainfall is applied to the foliage of the plants. When the foliage is dry, the plants are inoculated with a spore suspension on the fungus Erysiphe cichoracearum and incubated in a growth room for 7 days. Disease ratings are then made.

Assay [6] relates to Erysiphe cichoracearum. Briefly: cucumber powdery mildew photostability test. The format is in vivo. Conditions: Golovinomyces cichoracearum, 168 h, xenon arc 3500 foot candles 16 hours, 7 days. Here is the method: Compounds of this invention are dissolved in acetone in an amount equal to 6% of the final volume and then suspended at a concentration of 20 ppm in purified water containing 25 ppm of the surfactant Alkanol® XC (sodium alkyl naphthalene sulfonate). This suspension is sprayed to the point of run-off in cucumber seedlings. When the foliage is dry, the plants are exposed to 3500 foot candles of light from a xenon arc source for a period of 16 hours. This light source approximates the spectrum of natural sunlight, and is used to assess photostability of the compounds of this invention on plant foliage. The following day, the plants are inoculated with a spore suspension of the fungus Erysiphe cichoracearum and incubated in a growth room for 7 days. Disease ratings are then made.

Assay [7] has as its system Puccinia graminis var. tritici. Kind of assay: whole plant or invertebrate. Format: in vivo. Conditions: 192 h, read-out: % control wheat rust in preventive test.
For assay [8], the system named is Puccinia graminis var. tritici. Kind of assay: whole plant or invertebrate. The format is in vivo. Particulars: 192 h, read-out: % control wheat rust in residual wash-off test.
Assay [9] deals with Puccinia graminis var. tritici. Kind of assay: whole plant or invertebrate. The format is in vivo. Particulars: 192 h, read-out: % control wheat rust in a photostability test.
In the next assay the test system is Phytophthora infestans. Kind of assay: whole plant or invertebrate. Format: in vivo. Conditions: in Solanum lycopersicum, 96 h, read-out: % control tomato late blight in a photostability test.
The next assay relates to Sclerotinia sclerotiorum. Briefly: white mold on carrot sections dip test. Particulars: 100 ppm dip, 20° C., six days. The method, then: Surface-sterilized carrot sections were dipped two minutes in a 100 ppm solution of the compounds of this invention. Additional sections were dipped in a check solution which contained 500 ppm Alkanol® XC (sodium alkyl naphthalene sulfonate). After inoculation by placing a mycelial plug of Sclerotinia sclerotiorum on each carrot section, the test was held at 20° C. for six days.
The untreated carrot sections were completely invaded with the mycelial growth of white mold fungus, but the treated sections had little or no growth by this disease causing organism.

As to `Cc1ccc(S(=O)(=O)N(C)SN(c2cc(C(F)(F)F)ccc2Cl)c2c([N+](=O)[O-])cc([N+](=O)[O-])cc2C(F)(F)F)cc1`, the mortality at 1 % in assay [1] stood at 100%. The pest or weed control at 1500 g/ha in the assay with Rhizoctonia solani was determined as 100%. The pest or weed control at 20 ppm in the assay with Venturia inaequalis [2] is 100%; in the assay with Venturia inaequalis [3], 100%; in the assay with Erysiphe cichoracearum [4], 100%; in the assay on Erisyphe cichoracearum it was 100%; in the assay on Erysiphe cichoracearum [5], 92%; with Erysiphe cichoracearum [6], 0%. The pest or weed control at 20 ppm in assay [7] worked out at 80%; in [8], 100%; in assay [9], 40%; in the assay on Phytophthora infestans, 50%. Further, the “% control White Mold” value in the assay with Sclerotinia sclerotiorum is 100%.

Regarding `CCCCN(SN(c1cc(C(F)(F)F)ccc1Cl)c1c([N+](=O)[O-])cc([N+](=O)[O-])cc1C(F)(F)F)S(=O)(=O)c1ccccc1C`, in assay [1], the mortality at 1 % is 100%. Further, the pest or weed control at 1500 g/ha with Rhizoctonia solani turned out to be 50%. The pest or weed control at 20 ppm in the assay on Venturia inaequalis [2] was 100%; with Venturia inaequalis [3], 80%; in the assay on Erysiphe cichoracearum [4], 100%; in the assay with Erisyphe cichoracearum, 93%; in the assay with Erysiphe cichoracearum [5], 100%; with Erysiphe cichoracearum [6], 100%. For the same molecule, the pest or weed control at 20 ppm in assay [7] worked out at 100%; in [8] it was 100%; in [9], 98%; with Phytophthora infestans, 90%. Also, the “% control White Mold” value in the assay with Sclerotinia sclerotiorum came to 100%.

As to `CCCCN(SN(c1cc(C(F)(F)F)ccc1Cl)c1c([N+](=O)[O-])cc([N+](=O)[O-])cc1C(F)(F)F)S(=O)(=O)c1ccc(C)cc1`, the mortality at 200 ppm in [1] (200 ppm in acetone) came out at 100%. For the same molecule, the pest or weed control at 1500 g/ha with Rhizoctonia solani came to 100%. Besides, the pest or weed control at 20 ppm is 100% in the assay with Venturia inaequalis [2]; 0% with Venturia inaequalis [3]; 100% in the assay with Erysiphe cichoracearum [4]; 92% with Erisyphe cichoracearum; 100% with Erysiphe cichoracearum [5]; 75% with Erysiphe cichoracearum [6]. The pest or weed control at 20 ppm in assay [7] came to 100%; in assay [8], 100%; in assay [9], 100%; with Phytophthora infestans, 95%. The “% control White Mold” value in the assay on Sclerotinia sclerotiorum worked out at 86%.
